Experiments:
[1] = target: Mitogen-activated protein kinase kinase kinase 4 (Homo sapiens) (UniProt Q9Y6R4); experiment: Selectivity interaction (KinomeScan (DiscoverX)) EUB0001049a MAP3K4; conditions: at 1 µM
[2] = target: T1, Serine/threonine-protein kinase Nek11 (Homo sapiens) (UniProt Q8NG66); experiment: Selectivity interaction (KinomeScan (DiscoverX)) EUB0000229b NEK11; conditions: at 10 µM
T1 sequence (whole entry): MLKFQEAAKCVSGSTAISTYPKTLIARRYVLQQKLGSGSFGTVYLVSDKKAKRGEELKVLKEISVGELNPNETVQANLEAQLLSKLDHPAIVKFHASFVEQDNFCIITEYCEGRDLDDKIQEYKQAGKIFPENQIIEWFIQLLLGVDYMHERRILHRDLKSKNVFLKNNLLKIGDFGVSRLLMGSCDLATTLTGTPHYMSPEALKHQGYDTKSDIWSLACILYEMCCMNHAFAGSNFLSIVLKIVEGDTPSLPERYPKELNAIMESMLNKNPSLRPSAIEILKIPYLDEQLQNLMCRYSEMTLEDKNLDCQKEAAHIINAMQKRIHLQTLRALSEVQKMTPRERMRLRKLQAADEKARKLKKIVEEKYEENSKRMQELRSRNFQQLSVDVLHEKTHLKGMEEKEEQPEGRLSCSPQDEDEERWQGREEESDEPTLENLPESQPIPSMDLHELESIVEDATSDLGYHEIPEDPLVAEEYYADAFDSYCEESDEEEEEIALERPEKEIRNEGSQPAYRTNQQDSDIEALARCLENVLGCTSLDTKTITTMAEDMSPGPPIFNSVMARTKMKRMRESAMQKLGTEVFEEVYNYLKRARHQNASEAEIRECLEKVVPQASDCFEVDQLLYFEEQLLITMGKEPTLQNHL

[3] = target: Dual specificity protein kinase CLK1 (Homo sapiens, UniProt P49759); experiment: Selectivity interaction (Kinase panel (DSF assay)) EUB0001489b CLK1
[4] = target: T2, Mitogen-activated protein kinase kinase kinase kinase 3 (Homo sapiens) (UniProt Q8IVH8); experiment: Selectivity interaction (KinomeScan (DiscoverX)) EUB0000092b MAP4K3; conditions: at 10 µM
T2 sequence (whole entry): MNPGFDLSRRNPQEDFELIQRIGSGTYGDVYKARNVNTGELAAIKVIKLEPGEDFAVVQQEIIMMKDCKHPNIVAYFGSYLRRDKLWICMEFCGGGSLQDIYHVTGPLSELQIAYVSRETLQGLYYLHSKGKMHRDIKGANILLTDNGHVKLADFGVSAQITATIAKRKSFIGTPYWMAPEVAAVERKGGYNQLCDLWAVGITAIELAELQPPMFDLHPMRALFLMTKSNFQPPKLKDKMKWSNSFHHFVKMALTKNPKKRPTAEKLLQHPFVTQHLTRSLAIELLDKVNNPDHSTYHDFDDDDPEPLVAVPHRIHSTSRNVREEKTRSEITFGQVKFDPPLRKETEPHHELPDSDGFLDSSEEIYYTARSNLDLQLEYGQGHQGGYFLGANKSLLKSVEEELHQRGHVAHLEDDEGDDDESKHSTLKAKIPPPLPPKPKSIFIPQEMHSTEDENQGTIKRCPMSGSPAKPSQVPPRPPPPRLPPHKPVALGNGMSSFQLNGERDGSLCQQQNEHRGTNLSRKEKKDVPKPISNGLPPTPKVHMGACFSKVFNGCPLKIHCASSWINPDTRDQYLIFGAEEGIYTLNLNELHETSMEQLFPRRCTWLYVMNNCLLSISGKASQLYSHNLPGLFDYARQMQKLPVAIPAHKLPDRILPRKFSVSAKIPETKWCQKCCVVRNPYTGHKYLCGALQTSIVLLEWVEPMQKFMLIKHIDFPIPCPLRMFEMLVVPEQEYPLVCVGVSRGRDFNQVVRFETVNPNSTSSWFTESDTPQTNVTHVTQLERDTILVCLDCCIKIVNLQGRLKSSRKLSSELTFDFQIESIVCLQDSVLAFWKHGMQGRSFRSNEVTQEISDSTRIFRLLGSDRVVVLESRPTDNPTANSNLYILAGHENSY

[5] = target: T3, Dual specificity mitogen-activated protein kinase kinase 7 (Homo sapiens) (UniProt O14733); experiment: Selectivity interaction (KinomeScan (DiscoverX)) EUB0000092b MAP2K7; conditions: at 10 µM
T3 sequence (whole entry): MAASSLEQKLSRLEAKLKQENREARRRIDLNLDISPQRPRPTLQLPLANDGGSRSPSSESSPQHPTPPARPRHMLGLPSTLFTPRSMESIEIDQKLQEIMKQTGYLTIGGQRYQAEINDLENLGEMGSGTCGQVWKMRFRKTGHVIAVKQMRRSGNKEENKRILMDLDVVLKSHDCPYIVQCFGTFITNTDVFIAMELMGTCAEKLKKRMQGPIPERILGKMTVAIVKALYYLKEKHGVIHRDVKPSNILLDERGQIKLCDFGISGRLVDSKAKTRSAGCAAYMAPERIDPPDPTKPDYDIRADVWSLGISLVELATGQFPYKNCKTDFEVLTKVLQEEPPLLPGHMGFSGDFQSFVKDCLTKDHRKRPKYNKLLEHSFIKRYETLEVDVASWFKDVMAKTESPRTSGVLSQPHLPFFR

[6] = target: Tyrosine-protein kinase Yes (Homo sapiens) (UniProt P07947); experiment: Selectivity interaction (KinomeScan (DiscoverX)) EUB0000655a YES1; conditions: at 10 µM
[7] = target: Protein kinase C eta type (Homo sapiens) (UniProt P24723); experiment: Selectivity interaction (KinomeScan (DiscoverX)) EUB0000655a PRKCH; conditions: at 10 µM
[8] = target: Phosphatidylinositol 4,5-bisphosphate 3-kinase catalytic subunit alpha isoform (Homo sapiens) (UniProt P42336); experiment: Selectivity interaction (Adapta Assay) EUB0001632a PIK3CA; conditions: at 10 µM
Chain of Phosphatidylinositol 4,5-bisphosphate 3-kinase catalytic subunit alpha isoform (Homo sapiens) (P42336 whole entry, canonical isoform): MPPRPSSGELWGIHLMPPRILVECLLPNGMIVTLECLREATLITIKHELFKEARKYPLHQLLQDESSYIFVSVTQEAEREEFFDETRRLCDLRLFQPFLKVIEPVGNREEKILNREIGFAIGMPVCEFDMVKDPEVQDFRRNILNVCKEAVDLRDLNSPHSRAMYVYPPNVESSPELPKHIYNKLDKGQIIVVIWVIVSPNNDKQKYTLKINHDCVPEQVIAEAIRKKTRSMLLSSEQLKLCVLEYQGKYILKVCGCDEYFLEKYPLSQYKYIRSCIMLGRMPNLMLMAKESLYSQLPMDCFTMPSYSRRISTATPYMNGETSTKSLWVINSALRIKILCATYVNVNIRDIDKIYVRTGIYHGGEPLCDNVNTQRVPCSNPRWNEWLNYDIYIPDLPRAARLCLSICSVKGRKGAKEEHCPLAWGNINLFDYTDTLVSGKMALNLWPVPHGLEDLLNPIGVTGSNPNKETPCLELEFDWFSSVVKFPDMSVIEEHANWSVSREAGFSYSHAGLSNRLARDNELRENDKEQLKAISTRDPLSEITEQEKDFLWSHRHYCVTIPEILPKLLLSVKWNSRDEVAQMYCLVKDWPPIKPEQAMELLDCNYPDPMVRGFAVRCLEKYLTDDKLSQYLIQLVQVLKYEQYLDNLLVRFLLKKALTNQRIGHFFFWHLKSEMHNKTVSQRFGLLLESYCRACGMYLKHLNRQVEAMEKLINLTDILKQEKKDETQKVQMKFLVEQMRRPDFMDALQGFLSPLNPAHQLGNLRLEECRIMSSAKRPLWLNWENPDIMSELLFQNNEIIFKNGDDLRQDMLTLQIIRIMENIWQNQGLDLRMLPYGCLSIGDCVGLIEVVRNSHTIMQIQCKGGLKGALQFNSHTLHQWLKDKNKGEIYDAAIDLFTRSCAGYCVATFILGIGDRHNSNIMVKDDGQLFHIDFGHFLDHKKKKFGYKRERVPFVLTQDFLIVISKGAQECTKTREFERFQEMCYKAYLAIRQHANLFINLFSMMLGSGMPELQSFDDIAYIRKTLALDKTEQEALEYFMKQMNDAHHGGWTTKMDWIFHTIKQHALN

Chain of Mitogen-activated protein kinase kinase kinase 4 (Homo sapiens) (Q9Y6R4 whole entry): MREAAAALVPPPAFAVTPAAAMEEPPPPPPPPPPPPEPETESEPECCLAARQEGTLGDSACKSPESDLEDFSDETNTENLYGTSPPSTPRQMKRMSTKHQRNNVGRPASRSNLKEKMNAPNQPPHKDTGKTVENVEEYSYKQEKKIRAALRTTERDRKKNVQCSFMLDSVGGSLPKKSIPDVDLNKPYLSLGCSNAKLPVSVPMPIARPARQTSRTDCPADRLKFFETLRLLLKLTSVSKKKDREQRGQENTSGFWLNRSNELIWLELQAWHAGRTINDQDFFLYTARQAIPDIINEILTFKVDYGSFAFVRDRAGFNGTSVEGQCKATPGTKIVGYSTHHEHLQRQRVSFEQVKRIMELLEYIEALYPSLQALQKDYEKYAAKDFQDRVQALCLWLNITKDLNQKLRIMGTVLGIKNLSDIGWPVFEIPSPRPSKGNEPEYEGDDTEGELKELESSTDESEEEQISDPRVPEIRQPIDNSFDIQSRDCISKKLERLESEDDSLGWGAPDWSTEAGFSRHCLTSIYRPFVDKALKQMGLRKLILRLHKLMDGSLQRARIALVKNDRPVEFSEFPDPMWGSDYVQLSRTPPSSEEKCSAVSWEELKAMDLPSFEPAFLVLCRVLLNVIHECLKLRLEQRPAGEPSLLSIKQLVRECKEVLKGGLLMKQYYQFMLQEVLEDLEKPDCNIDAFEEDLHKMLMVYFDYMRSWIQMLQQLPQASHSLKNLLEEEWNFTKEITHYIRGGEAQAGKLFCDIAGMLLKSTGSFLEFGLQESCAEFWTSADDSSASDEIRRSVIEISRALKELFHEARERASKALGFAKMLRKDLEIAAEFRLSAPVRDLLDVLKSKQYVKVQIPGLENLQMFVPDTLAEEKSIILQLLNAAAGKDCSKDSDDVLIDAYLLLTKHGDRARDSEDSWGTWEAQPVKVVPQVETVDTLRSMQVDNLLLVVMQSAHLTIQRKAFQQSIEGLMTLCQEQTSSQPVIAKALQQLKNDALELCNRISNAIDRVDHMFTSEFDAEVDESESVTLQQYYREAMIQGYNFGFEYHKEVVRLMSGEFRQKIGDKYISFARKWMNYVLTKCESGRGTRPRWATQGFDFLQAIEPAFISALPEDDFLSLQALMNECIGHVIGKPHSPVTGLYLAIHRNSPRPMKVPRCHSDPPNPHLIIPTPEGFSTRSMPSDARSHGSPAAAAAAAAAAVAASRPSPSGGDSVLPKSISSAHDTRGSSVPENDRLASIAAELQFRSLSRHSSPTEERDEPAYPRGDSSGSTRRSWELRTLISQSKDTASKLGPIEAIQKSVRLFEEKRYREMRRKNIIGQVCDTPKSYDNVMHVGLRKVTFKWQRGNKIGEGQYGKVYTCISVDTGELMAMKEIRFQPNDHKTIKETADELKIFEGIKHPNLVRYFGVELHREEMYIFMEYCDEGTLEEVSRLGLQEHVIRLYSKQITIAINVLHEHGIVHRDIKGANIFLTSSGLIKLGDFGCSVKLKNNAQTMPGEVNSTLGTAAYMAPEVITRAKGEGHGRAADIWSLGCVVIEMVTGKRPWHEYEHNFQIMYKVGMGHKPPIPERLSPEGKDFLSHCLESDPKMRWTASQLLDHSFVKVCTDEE
Chain of Protein kinase C eta type (Homo sapiens) (P24723 whole entry, canonical isoform): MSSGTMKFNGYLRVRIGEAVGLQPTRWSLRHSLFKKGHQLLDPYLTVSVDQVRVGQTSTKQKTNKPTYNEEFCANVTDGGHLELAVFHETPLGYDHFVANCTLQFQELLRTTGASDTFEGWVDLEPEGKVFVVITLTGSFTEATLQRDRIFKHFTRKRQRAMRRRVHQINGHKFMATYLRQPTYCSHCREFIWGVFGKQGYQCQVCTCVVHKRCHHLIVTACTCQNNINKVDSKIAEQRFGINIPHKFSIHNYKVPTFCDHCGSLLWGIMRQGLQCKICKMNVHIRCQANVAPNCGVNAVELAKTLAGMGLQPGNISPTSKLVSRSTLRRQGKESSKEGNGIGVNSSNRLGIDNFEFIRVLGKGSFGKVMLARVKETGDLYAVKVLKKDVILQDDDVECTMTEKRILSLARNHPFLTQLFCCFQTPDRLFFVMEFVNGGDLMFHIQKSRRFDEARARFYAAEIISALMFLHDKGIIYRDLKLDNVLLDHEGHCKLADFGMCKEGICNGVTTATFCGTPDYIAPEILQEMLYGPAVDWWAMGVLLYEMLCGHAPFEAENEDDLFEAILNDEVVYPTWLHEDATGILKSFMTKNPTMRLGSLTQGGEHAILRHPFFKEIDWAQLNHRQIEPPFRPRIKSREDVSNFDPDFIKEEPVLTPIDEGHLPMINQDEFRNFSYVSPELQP
Chain of Dual specificity protein kinase CLK1 (P49759 whole entry, looked up): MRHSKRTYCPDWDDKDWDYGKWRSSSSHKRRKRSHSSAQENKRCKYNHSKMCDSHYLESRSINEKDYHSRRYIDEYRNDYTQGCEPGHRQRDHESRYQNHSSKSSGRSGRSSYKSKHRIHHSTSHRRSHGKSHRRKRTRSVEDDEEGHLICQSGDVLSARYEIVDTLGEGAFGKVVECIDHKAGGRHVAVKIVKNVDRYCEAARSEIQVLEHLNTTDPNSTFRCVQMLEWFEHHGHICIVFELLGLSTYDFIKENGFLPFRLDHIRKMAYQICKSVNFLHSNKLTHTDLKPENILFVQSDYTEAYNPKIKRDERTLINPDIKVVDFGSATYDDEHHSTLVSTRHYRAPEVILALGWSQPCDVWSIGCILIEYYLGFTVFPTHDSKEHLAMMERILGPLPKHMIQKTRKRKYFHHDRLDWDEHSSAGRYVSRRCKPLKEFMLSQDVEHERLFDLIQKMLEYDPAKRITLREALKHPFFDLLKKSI
Chain of Tyrosine-protein kinase Yes (Homo sapiens) (P07947 2-543 limits assumed): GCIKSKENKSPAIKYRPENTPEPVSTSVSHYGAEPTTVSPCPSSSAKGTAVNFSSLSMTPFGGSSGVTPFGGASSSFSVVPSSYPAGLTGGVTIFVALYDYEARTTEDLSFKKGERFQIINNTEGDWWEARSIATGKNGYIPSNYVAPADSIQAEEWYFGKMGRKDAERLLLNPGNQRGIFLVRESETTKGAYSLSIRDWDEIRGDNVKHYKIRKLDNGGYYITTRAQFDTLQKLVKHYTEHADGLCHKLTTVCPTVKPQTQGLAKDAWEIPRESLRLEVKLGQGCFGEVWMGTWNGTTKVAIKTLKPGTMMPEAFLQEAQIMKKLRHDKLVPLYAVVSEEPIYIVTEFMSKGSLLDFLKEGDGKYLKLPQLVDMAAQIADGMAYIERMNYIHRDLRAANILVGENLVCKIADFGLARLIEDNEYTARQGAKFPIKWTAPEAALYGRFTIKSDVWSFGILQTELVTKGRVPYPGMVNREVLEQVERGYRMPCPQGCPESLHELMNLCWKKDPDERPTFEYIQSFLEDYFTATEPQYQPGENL

In the case of COc1cc(Nc2nc(C)cc(-c3cnn4nc(OC)ccc34)n2)cc(C(F)(F)F)c1, the % of control [1] is reported as 87%.
For COc1cc(N(C)c2ccnc3ccc(C(F)(F)F)cc23)cc(OC)c1OC, the % binding [2] was 91%.
With CN1CCN(C(=O)c2ccc3cc2OCCOCCNc2ccn4ncc-3c4n2)CC1 the dTM [3] was 2.9 K.
CCC(=O)N1CCN(c2ccc(-n3c(=O)ccc4cnc5ccc(-c6cnc7ccccc7c6)cc5c43)cc2C(F)(F)F)CC1 showed a % of control [4] of 1.9% and a % of control [5] of 100%.
With CN(C)CCOc1ccc(-c2nc(-c3ccncc3)c(-c3ccc4c(c3)CC/C4=N\O)[nH]2)cc1 the % of control [6] was 100% and the % of control [7] was 100%.
Cn1cc(-n2cnc3c(NCc4nc5cc(Cl)c(Cl)cc5[nH]4)nc(N4CCOCC4)nc32)cn1 was tested, and the % of inhibition [8] was 37.1%.
